ChEMBL document CHEMBL4321854, “Discovery of a First-in-Class Mitogen-Activated Protein Kinase Kinase 1/2 Degrader” (J Med Chem, 2019)
Activity calls are given as the source filed them. The rule behind the calls is not given here.

Legend:
[1] = biological target: T1, von Hippel-Lindau disease tumor suppressor/Dual specificity mitogen-activated protein kinase kinase 2 (Homo sapiens) (UniProt P36507+P40337); experiment: (§1) Protac activity against VHL/MEK2 in human COLO205 cells harboring BRAF V600E variant assessed as degradation of MEK2 after 24 hrs by Western blot analysis; assay type: cell-based
T1 sequence (P36507 whole entry, looked up): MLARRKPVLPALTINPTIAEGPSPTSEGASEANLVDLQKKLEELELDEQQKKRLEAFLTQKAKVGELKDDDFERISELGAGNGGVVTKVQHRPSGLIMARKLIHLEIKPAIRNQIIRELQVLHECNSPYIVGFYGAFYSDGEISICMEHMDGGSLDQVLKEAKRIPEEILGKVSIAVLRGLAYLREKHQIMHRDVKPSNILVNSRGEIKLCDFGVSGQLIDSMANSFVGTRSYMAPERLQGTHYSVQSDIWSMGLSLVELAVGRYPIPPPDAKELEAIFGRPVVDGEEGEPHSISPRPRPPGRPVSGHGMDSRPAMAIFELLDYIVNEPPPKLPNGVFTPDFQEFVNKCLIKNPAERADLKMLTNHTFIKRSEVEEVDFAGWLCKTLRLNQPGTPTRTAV
T1 sequence (P40337 whole entry, looked up): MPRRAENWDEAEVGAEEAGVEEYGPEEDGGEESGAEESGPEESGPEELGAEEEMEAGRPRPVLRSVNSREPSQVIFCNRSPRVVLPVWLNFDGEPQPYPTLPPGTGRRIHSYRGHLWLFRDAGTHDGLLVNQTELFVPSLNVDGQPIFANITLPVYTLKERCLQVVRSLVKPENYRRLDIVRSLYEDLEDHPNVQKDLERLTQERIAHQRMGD

[2] = biological target: von Hippel-Lindau disease tumor suppressor/Dual specificity mitogen-activated protein kinase kinase 2 (Homo sapiens, UniProt P36507+P40337, V600E); experiment: as §1; assay type: cell-based
von Hippel-Lindau disease tumor suppressor/Dual specificity mitogen-activated protein kinase kinase 2, sequence (P36507 whole entry, looked up, stated change not applied): as the sequence (P36507 whole entry, looked up) above
von Hippel-Lindau disease tumor suppressor/Dual specificity mitogen-activated protein kinase kinase 2, sequence (P40337 whole entry, looked up, stated change not applied): as the sequence (P40337 whole entry, looked up) above

[3] = biological target: T2, von Hippel-Lindau disease tumor suppressor/Dual specificity mitogen-activated protein kinase kinase 1 (Homo sapiens) (UniProt Q02750+P40337); experiment: Protac activity against VHL/MEK1 in human HT-29 cells harboring with BRAF V600E variant assessed as degradation of MEK1 at 3 to 5 uM after 24 hrs by Western blot analysis; assay type: cell-based
T2 sequence (P40337 whole entry, looked up): as above
T2 sequence (Q02750 whole entry, looked up): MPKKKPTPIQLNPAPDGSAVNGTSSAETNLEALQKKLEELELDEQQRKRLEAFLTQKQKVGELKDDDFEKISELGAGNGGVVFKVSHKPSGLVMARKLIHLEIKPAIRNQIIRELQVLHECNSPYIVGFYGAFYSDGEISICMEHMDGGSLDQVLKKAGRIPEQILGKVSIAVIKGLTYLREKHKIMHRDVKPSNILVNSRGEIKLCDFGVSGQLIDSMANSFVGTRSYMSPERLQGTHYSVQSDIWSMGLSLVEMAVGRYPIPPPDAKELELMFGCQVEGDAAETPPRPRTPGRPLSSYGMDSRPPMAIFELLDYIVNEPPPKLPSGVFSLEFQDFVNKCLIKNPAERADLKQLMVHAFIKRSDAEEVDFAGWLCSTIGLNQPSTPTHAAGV

[4] = biological target: T2, von Hippel-Lindau disease tumor suppressor/Dual specificity mitogen-activated protein kinase kinase 1 (Homo sapiens); experiment: Protac activity against VHL/MEK1 in human UACC257 cells harboring with BRAF V600E variant assessed as degradation of MEK1 at 3 to 5 uM uM after 24 hrs by Western blot analysis; assay type: cell-based
[5] = biological target: T3, von Hippel-Lindau disease tumor suppressor/Dual specificity mitogen-activated protein kinase kinase 2/Dual specificity mitogen-activated protein kinase kinase 1 (Homo sapiens) (UniProt P36507+Q02750+P40337); experiment: Protac activity against VHL/MEK1/2 in human UACC257 cells harboring with BRAF V600E variant assessed as reduction in phosphorylation of MEK at S218/222 residues after 24 hrs by Western blot analysis; assay type: cell-based
T3 sequence (P36507 whole entry, looked up): as the sequence (P36507 whole entry, looked up) above
T3 sequence (P40337 whole entry, looked up): as the sequence (P40337 whole entry, looked up) above
T3 sequence (Q02750 whole entry, looked up): as the sequence (Q02750 whole entry, looked up) above

[6] = biological target: T3, von Hippel-Lindau disease tumor suppressor/Dual specificity mitogen-activated protein kinase kinase 2/Dual specificity mitogen-activated protein kinase kinase 1 (Homo sapiens); experiment: Protac activity against VHL/MEK1/2 in human HT-29 cells harboring with BRAF V600E variant assessed as reduction in phosphorylation of ERK at T202/Y204 residues after 24 hrs by Western blot analysis; assay type: cell-based
[7] = biological target: T3, von Hippel-Lindau disease tumor suppressor/Dual specificity mitogen-activated protein kinase kinase 2/Dual specificity mitogen-activated protein kinase kinase 1 (Homo sapiens); experiment: Protac activity against VHL/MEK1/2 in human UACC257 cells harboring with BRAF V600E variant assessed as reduction in phosphorylation of ERK at T202/Y204 residues after 24 hrs by Western blot analysis; assay type: cell-based
[8] = test system: COLO 205; experiment: Effect on total ERK protein expression in human COLO205 cells at 0.001 to 5 uM after 24 hrs by Western blot analysis; assay type: functional, cell-based
[9] = biological target: T2, von Hippel-Lindau disease tumor suppressor/Dual specificity mitogen-activated protein kinase kinase 1 (Homo sapiens); experiment: Protac activity against VHL/MEK1 in human SK-MEL-28 cells harboring with BRAF V600E variant assessed as degradation of MEK1 by measuring reduction in MEK1 protein level at 0.1 to 0.3 uM after 2 hrs by Western blot analysis; assay type: cell-based
[10] = biological target: T1, von Hippel-Lindau disease tumor suppressor/Dual specificity mitogen-activated protein kinase kinase 2 (Homo sapiens); experiment: Protac activity against VHL/MEK2 in human SK-MEL-28 cells harboring with BRAF V600E variant assessed as degradation of MEK2 by measuring reduction in MEK2 protein level at 0.1 to 0.3 uM after 2 hrs by Western blot analysis; assay type: cell-based
[11] = biological target: T1, von Hippel-Lindau disease tumor suppressor/Dual specificity mitogen-activated protein kinase kinase 2 (Homo sapiens); experiment: Protac activity against VHL/MEK2 in human HT-29 cells harboring with BRAF V600E variant assessed as degradation of MEK2 at 0.1 to 0.3 uM after 4 hrs by Western blot analysis; assay type: cell-based
[12] = biological target: T1, von Hippel-Lindau disease tumor suppressor/Dual specificity mitogen-activated protein kinase kinase 2 (Homo sapiens); experiment: Protac activity against VHL/MEK2 in human SK-MEL-28 cells harboring with BRAF V600E variant assessed as degradation of MEK2 at 0.1 to 0.3 uM after 4 hrs by Western blot analysis; assay type: cell-based
[13] = biological target: T3, von Hippel-Lindau disease tumor suppressor/Dual specificity mitogen-activated protein kinase kinase 2/Dual specificity mitogen-activated protein kinase kinase 1 (Homo sapiens); experiment: Protac activity against VHL/MEK1/2 in human HT-29 cells harboring with BRAF V600E variant assessed as reduction in phosphorylation of ERK at T202/Y204 residues at 0.1 to 0.3 uM by Western blot analysis; assay type: cell-based; settings: TDE = time-dependent effect
[14] = biological target: T2, von Hippel-Lindau disease tumor suppressor/Dual specificity mitogen-activated protein kinase kinase 1 (Homo sapiens); experiment: Protac activity against VHL/MEK1 in human HT-29 cells harboring with BRAF V600E variant assessed as degradation of MEK1 at 0.3 uM after 3 to 144 hrs by Western blot analysis; assay type: cell-based
[15] = biological target: T1, von Hippel-Lindau disease tumor suppressor/Dual specificity mitogen-activated protein kinase kinase 2 (Homo sapiens); experiment: Protac activity against VHL/MEK2 in human HT-29 cells harboring with BRAF V600E variant assessed as degradation of MEK2 at 0.3 uM after 3 to 144 hrs by Western blot analysis; assay type: cell-based
[16] = biological target: T1, von Hippel-Lindau disease tumor suppressor/Dual specificity mitogen-activated protein kinase kinase 2 (Homo sapiens); experiment: (§2) Protac activity against VHL/MEK2 in human SK-MEL-28 cells harboring with BRAF V600E variant assessed as degradation of MEK2 by measuring MEK2 protein level at 0.3 uM pretreated with MEK1/2 inhibitor, PD0325901 for 2 hrs followed by incubation with compound for 10 hrs by Western blot analysis; assay type: cell-based
[17] = biological target: T3, von Hippel-Lindau disease tumor suppressor/Dual specificity mitogen-activated protein kinase kinase 2/Dual specificity mitogen-activated protein kinase kinase 1 (Homo sapiens); experiment: Protac activity against VHL/MEK1/2 in human SK-MEL-28 cells harboring with BRAF V600E variant assessed as phosphorylation of ERK at T202/Y204 residues at 0.3 uM pretreated with MEK1/2 inhibitor, PD0325901 for 2 hrs followed by incubation with compound for 10 hrs by Western blot analysis; assay type: cell-based
[18] = biological target: T2, von Hippel-Lindau disease tumor suppressor/Dual specificity mitogen-activated protein kinase kinase 1 (Homo sapiens); experiment: Protac activity against VHL/MEK1 in human SK-MEL-28 cells harboring with BRAF V600E variant assessed as degradation of MEK1 by measuring MEK1 protein level at 0.3 uM pretreated with VHL ligand, VH 032 for 2 hrs followed by incubation with compound for 10 hrs by Western blot analysis; assay type: cell-based
[19] = biological target: T3, von Hippel-Lindau disease tumor suppressor/Dual specificity mitogen-activated protein kinase kinase 2/Dual specificity mitogen-activated protein kinase kinase 1 (Homo sapiens); experiment: Protac activity against VHL/MEK1/2 in human SK-MEL-28 cells harboring with BRAF V600E variant assessed as in phosphorylation of MEK at S218/222 residues at 0.3 uM pretreated with VHL ligand, VH 032 for 2 hrs followed by incubation with compound for 10 hrs by Western blot analysis; assay type: cell-based
[20] = biological target: T3, von Hippel-Lindau disease tumor suppressor/Dual specificity mitogen-activated protein kinase kinase 2/Dual specificity mitogen-activated protein kinase kinase 1 (Homo sapiens); experiment: Protac activity against VHL/MEK1/2 in human SK-MEL-28 cells harboring with BRAF V600E variant assessed as phosphorylation of ERK at T202/Y204 residues at 0.3 uM pretreated with VHL ligand, VH 032 for 2 hrs followed by incubation with compound for 10 hrs by Western blot analysis; assay type: cell-based
[21] = biological target: T3, von Hippel-Lindau disease tumor suppressor/Dual specificity mitogen-activated protein kinase kinase 2/Dual specificity mitogen-activated protein kinase kinase 1 (Homo sapiens); experiment: (§3) Protac activity against VHL/MEK1/2 in human SK-MEL-28 cells harboring with BRAF V600E variant assessed as phosphorylation of MEK at S218/222 residues at 0.3 uM pretreated with proteasome inhibitor, MG-132 for 2 hrs followed by incubation with compound for 10 hrs by Western blot analysis; assay type: cell-based
[22] = biological target: T1, von Hippel-Lindau disease tumor suppressor/Dual specificity mitogen-activated protein kinase kinase 2 (Homo sapiens); experiment: as §2, with “NEDD8-activating enzyme” for “MEK1/2”, “MLN4924” for “PD0325901”; assay type: cell-based
[23] = biological target: T3, von Hippel-Lindau disease tumor suppressor/Dual specificity mitogen-activated protein kinase kinase 2/Dual specificity mitogen-activated protein kinase kinase 1 (Homo sapiens); experiment: as §3, with “NEDD8-activating enzyme” for “proteasome”, “MLN4924” for “MG-132”; assay type: cell-based
[24] = biological target: von Hippel-Lindau disease tumor suppressor/Leukocyte receptor cluster member 8 (Homo sapiens) (UniProt P40337+Q96PV6); experiment: Protac activity against VHL/LENG8 in human HT-29 cells harboring with BRAF V600E variant assessed as LENG8 protein level at 0.1 uM after 10 hrs by Western blot analysis; assay type: cell-based
von Hippel-Lindau disease tumor suppressor/Leukocyte receptor cluster member 8 (Homo sapiens), sequence (P40337 whole entry, looked up): as the sequence (P40337 whole entry, looked up) above
von Hippel-Lindau disease tumor suppressor/Leukocyte receptor cluster member 8 (Homo sapiens), sequence (Q96PV6 whole entry, looked up): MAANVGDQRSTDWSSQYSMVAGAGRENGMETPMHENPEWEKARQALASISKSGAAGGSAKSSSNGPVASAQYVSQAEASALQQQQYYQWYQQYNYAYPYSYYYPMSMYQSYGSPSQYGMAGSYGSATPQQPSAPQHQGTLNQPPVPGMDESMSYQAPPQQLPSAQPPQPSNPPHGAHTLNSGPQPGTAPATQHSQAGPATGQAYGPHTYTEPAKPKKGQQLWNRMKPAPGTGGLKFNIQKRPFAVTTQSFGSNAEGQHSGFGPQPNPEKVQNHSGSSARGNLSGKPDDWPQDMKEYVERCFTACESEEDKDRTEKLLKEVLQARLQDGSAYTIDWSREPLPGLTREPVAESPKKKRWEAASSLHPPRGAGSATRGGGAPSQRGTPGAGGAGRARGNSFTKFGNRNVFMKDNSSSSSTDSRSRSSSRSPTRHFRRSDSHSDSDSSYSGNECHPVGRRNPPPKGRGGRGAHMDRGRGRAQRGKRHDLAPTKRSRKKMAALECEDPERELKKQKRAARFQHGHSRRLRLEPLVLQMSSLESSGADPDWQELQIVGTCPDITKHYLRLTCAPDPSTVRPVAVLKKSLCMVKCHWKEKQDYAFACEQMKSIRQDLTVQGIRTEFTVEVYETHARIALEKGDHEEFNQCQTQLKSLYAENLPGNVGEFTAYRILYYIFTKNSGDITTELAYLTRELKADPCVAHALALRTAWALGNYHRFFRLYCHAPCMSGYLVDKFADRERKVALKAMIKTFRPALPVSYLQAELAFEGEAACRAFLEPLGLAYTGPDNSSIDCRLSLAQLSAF

[25] = test system: HT-29; experiment: Inhibition of colony formation in human HT-29 cells at 10 to 100 nM supplemented with fresh medium containing compound every 3 days for 14 days by crystal violet staining based assay; assay type: functional, cell-based
[26] = Ratio of Plasma concentration in Swiss albino mouse at 50 mg/kg, ip measured after 8 hrs to GI50 for antiproliferative activity against human COLO205 cells; assay type: organism-based; settings: in vivo

**Q.** What does the source list for `Cc1ncsc1-c1ccc([C@H](C)NC(=O)[C@@H]2C[C@@H](O)CN2C(=O)[C@@H](NC(=O)CCCCCCCCCCNCCCONC(=O)c2ccc(F)c(F)c2Nc2ccc(I)cc2F)C(C)(C)C)cc1`?
**A.** Activity [1]: Dose-dependent effect; DC50 [2]: 11 nM; Activity [3]: Active; Activity [4]: Active; Activity [5]: Dose-dependent effect; Activity [6]: Dose-dependent effect; Activity [7]: Dose-dependent effect; Activity [8]: inactive; Activity [9]: Active; Activity [10]: Active; Activity [11]: Active; Activity [12]: Active; Activity [13]: Tde; Activity [14]: Active; Activity [15]: Active; Activity [16]: inactive; Activity [17]: inactive; Activity [18]: inactive; Activity [19]: inactive; Activity [20]: inactive; Activity [21]: inactive; Activity [22]: inactive; Activity [23]: inactive; Activity [24]: inactive; inhibition [25]: Active; Ratio [26]: 3 to 20
